Reference: ChEMBL document CHEMBL1155252 (Bioorg Med Chem, 2009)

How the values were obtained:
[1] = target: 3',5'-cyclic-AMP phosphodiesterase 4D (Homo sapiens, UniProt Q08499); assay: Inhibition of PDE4D by luciferase-coupled assay
[2] = target: 3',5'-cyclic-AMP phosphodiesterase 4B (Homo sapiens, UniProt Q07343); assay: Inhibition of PDE4B by luciferase-coupled assay
[3] = target: cGMP-specific 3',5'-cyclic phosphodiesterase (Homo sapiens, UniProt O76074); assay: Inhibition of human PDE5 by scintillation proximity assay
[4] = Inhibition of bovine PDE3 by scintillation proximity assay; design: species or system Bos taurus
[5] = Selectivity for PDE4B over PDE4D

Chain of 3',5'-cyclic-AMP phosphodiesterase 4B (Q07343 whole entry): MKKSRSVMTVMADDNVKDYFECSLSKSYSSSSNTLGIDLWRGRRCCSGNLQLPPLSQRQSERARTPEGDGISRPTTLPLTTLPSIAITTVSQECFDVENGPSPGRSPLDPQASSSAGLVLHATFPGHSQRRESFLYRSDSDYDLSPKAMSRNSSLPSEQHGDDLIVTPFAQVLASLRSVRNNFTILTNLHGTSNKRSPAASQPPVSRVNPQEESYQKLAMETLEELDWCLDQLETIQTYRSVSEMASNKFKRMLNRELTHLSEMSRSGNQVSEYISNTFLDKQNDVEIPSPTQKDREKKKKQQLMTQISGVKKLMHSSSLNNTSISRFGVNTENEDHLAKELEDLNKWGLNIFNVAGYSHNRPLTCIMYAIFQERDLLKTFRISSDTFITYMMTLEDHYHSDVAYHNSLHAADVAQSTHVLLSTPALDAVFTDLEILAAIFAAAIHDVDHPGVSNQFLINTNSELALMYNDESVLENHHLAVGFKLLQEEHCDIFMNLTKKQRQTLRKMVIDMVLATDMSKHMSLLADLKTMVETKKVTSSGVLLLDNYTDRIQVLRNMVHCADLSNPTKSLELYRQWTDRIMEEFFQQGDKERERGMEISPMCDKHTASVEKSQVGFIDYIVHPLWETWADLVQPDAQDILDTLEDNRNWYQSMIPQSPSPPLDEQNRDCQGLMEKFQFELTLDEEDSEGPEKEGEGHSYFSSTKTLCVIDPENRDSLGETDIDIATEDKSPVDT
Chain of 3',5'-cyclic-AMP phosphodiesterase 4D (Q08499 whole entry): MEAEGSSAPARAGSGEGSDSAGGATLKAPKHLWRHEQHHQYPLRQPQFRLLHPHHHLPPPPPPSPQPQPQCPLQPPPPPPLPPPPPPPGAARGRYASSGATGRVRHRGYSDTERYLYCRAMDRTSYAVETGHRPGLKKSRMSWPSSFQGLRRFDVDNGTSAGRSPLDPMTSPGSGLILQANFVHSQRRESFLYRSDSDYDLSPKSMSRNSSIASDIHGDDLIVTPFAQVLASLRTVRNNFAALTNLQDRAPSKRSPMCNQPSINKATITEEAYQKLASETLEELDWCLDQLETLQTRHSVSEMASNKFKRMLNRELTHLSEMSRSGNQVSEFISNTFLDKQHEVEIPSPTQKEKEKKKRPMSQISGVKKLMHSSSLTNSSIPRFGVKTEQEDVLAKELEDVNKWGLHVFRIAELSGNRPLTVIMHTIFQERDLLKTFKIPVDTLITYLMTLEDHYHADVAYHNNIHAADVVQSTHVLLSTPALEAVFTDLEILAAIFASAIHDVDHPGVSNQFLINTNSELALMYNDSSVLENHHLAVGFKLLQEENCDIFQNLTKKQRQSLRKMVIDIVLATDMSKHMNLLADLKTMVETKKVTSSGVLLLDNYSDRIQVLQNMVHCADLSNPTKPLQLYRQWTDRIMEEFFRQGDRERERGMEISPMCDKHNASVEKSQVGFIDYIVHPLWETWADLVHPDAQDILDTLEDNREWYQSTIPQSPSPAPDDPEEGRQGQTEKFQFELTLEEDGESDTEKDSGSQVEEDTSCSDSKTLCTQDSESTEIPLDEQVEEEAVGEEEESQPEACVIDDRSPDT

| SMILES | IC50 [1] [nM] | IC50 [2] [nM] | IC50 [3] [nM] | pIC50 [4] | Selectivity Index [5] |
| --- | --- | --- | --- | --- | --- |
| CC1CCc2c(sc(NC(=O)c3cccc([N+](=O)[O-])c3)c2C(N)=O)C1 (stereo unspecified) | > 2510 | 631 |  |  |  |
| CC(C)(C)C1CCc2c(sc(NC(=O)c3c(F)cccc3F)c2C(N)=O)C1 (stereo unspecified) |  | 79.4 |  |  |  |
| CC1CCc2c(sc(NC(=O)c3ccc([N+](=O)[O-])cc3)c2C(N)=O)C1 (stereo unspecified) | > 2510 | > 2510 |  |  |  |
| Cc1cccc(C)c1C1CCCc2sc(NC(=O)c3ccccc3[N+](=O)[O-])c(C(N)=O)c21 (stereo unspecified) | 2510 | 5010 |  |  |  |
| CC(C)(C)C1CCc2c(sc(NC(=O)c3ccncc3)c2C(N)=O)C1 (stereo unspecified) | 316 | 200 | > 10000 | < 5 |  |
| CCCCCC1CCc2c(sc(NC(=O)c3ccccc3[N+](=O)[O-])c2C(N)=O)C1 (stereo unspecified) | 2510 | 100 |  |  |  |
| CC1CCc2sc(NC(=O)c3ccccc3[N+](=O)[O-])c(C(N)=O)c2C1 (stereo unspecified) | 6310 | 2000 |  |  |  |
| CCC1CCc2c(sc(NC(=O)c3ccccc3[N+](=O)[O-])c2C(N)=O)C1 (stereo unspecified) | 126 | 10 |  |  | 10 |
| CNC(=O)c1c(NC(=O)c2c(F)cccc2F)sc2c1CCC(C(C)(C)C)C2 (stereo unspecified) |  | > 10000 |  |  |  |
| CC(C)(C)C1CCc2c(sc(NC(=O)c3ccccc3[N+](=O)[O-])c2C(N)=O)C1 (stereo unspecified) | 126 | 25.1 |  |  |  |
| CC(C)(C)C1CCc2sc(NC(=O)c3ccccc3[N+](=O)[O-])c(C(N)=O)c2C1 (stereo unspecified) | 6310 | 1260 |  |  |  |
| CC1CCCc2sc(NC(=O)c3ccccc3[N+](=O)[O-])c(C(N)=O)c21 (stereo unspecified) | 31600 | 5010 |  |  |  |
| NC(=O)c1c(NC(=O)c2ccccc2[N+](=O)[O-])sc2c1CCC(c1ccccc1)C2 (stereo unspecified) | 1580 | 398 |  |  |  |
| CC1(C)CCc2c(sc(NC(=O)c3ccccc3[N+](=O)[O-])c2C(N)=O)C1 | 398 | 50.1 |  |  |  |
| NC(=O)c1c(NC(=O)c2ccccc2[N+](=O)[O-])sc2c1CCCC2 | 6310 | 1260 |  |  |  |
